Data from PubChem BioAssay (NCI).
“And” between values parts separate entries of the source, which are not always exact repeats. Equal values may be shown once.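 Five compound concentrations were applied to cells in 96-well plates for 48 hours; endpoints were derived by simple linear interpolation of the resulting dose-response curve. At the GI50, growth is halved. TGI marks complete inhibition of growth.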

Key:
Test in all cases: growth of human tumour cells (NCI), 48 h
786-0 renal = test system: 786-0 renal
A498 renal = test system: A498 renal
A549 NSCLC = test system: A549 NSCLC
ACHN renal = test system: ACHN renal
BT-549 breast = test system: BT-549 breast
CAKI-1 renal = test system: CAKI-1 renal
CCRF-CEM leukemia = test system: CCRF-CEM leukemia
COLO 205 colon = test system: COLO 205 colon
DU-145 prostate = test system: DU-145 prostate
EKVX NSCLC = test system: EKVX NSCLC
HCT-116 colon = test system: HCT-116 colon
HCT-15 colon = test system: HCT-15 colon
HL-60(TB) leukemia = test system: HL-60(TB) leukemia
HOP-62 NSCLC = test system: HOP-62 NSCLC
HOP-92 NSCLC = test system: HOP-92 NSCLC
HS 578T breast = test system: HS 578T breast
HT29 colon = test system: HT29 colon
IGROV1 ovarian = test system: IGROV1 ovarian
K-562 leukemia = test system: K-562 leukemia
KM12 colon = test system: KM12 colon
LOX IMVI melanoma = test system: LOX IMVI melanoma
M14 melanoma = test system: M14 melanoma
MCF7 breast = test system: MCF7 breast
MDA-MB-231 breast = test system: MDA-MB-231 breast
MDA-MB-435 = test system: MDA-MB-435
MDA-N = test system: MDA-N
MOLT-4 leukemia = test system: MOLT-4 leukemia
NCI-H226 lung = test system: NCI-H226 lung
NCI-H23 lung = test system: NCI-H23 lung
NCI-H460 lung = test system: NCI-H460 lung
NCI/ADR-RES ovarian = test system: NCI/ADR-RES ovarian
OVCAR-3 ovarian = test system: OVCAR-3 ovarian
OVCAR-5 ovarian = test system: OVCAR-5 ovarian
OVCAR-8 ovarian = test system: OVCAR-8 ovarian
PC-3 prostate = test system: PC-3 prostate
RPMI-8226 leukemia = test system: RPMI-8226 leukemia
SF-268 CNS = test system: SF-268 CNS
SF-295 CNS = test system: SF-295 CNS
SF-539 CNS = test system: SF-539 CNS
SK-MEL-2 melanoma = test system: SK-MEL-2 melanoma
SK-MEL-28 melanoma = test system: SK-MEL-28 melanoma
SK-MEL-5 melanoma = test system: SK-MEL-5 melanoma
SK-OV-3 ovarian = test system: SK-OV-3 ovarian
SN12C renal = test system: SN12C renal
SNB-19 CNS = test system: SNB-19 CNS
SNB-75 CNS = test system: SNB-75 CNS
SR leukemia = test system: SR leukemia
SW-620 colon = test system: SW-620 colon
T-47D breast = test system: T-47D breast
TK-10 renal = test system: TK-10 renal
U251 CNS = test system: U251 CNS
UACC-257 melanoma = test system: UACC-257 melanoma
UACC-62 melanoma = test system: UACC-62 melanoma
UO-31 renal = test system: UO-31 renal
HCC-2998 colon = test system: HCC-2998 colon
OVCAR-4 ovarian = test system: OVCAR-4 ovarian
RXF 393 renal = test system: RXF 393 renal

## O=c1[nH]c(N/N=C\C(O)C(O)C(O)CO)nc2ccccc12 (stereo not given)
786-0 renal
  TGI: > 100 µM
A498 renal
  TGI: > 100 µM
A549 NSCLC
  TGI: > 100 µM
ACHN renal
  TGI: > 100 µM
BT-549 breast
  TGI: > 100 µM
CAKI-1 renal
  TGI: > 100 µM
CCRF-CEM leukemia
  TGI: > 100 µM
COLO 205 colon
  TGI: > 100 µM
DU-145 prostate
  TGI: > 100 µM
EKVX NSCLC
  TGI: > 100 µM
HCT-116 colon
  TGI: > 100 µM
HCT-15 colon
  TGI: > 100 µM
HL-60(TB) leukemia
  TGI: > 100 µM
HOP-62 NSCLC
  TGI: > 100 µM
HOP-92 NSCLC
  TGI: > 100 µM
HS 578T breast
  TGI: > 100 µM
HT29 colon
  TGI: > 100 µM
IGROV1 ovarian
  TGI: > 100 µM
K-562 leukemia
  TGI: > 100 µM
KM12 colon
  TGI: > 100 µM
LOX IMVI melanoma
  TGI: > 100 µM
M14 melanoma
  TGI: > 100 µM
MCF7 breast
  TGI: > 100 µM
MDA-MB-231 breast
  GI50: > 100 µM and 47.7 µM
  TGI: > 100 µM
MDA-MB-435
  TGI: > 100 µM
MDA-N
  TGI: > 100 µM
MOLT-4 leukemia
  TGI: > 100 µM
NCI-H226 lung
  TGI: > 100 µM
NCI-H23 lung
  TGI: > 100 µM
NCI-H460 lung
  TGI: > 100 µM
NCI/ADR-RES ovarian
  TGI: > 100 µM
OVCAR-3 ovarian
  TGI: > 100 µM
OVCAR-5 ovarian
  TGI: > 100 µM
OVCAR-8 ovarian
  TGI: > 100 µM
PC-3 prostate
  TGI: > 100 µM
RPMI-8226 leukemia
  TGI: > 100 µM
SF-268 CNS
  TGI: > 100 µM
SF-295 CNS
  TGI: > 100 µM
SF-539 CNS
  TGI: > 100 µM
SK-MEL-2 melanoma
  TGI: > 100 µM
SK-MEL-28 melanoma
  TGI: > 100 µM
SK-MEL-5 melanoma
  TGI: > 100 µM
SK-OV-3 ovarian
  TGI: > 100 µM
SN12C renal
  TGI: > 100 µM
SNB-19 CNS
  TGI: > 100 µM
SNB-75 CNS
  TGI: > 100 µM
SR leukemia
  TGI: > 100 µM
SW-620 colon
  TGI: > 100 µM
T-47D breast
  TGI: > 100 µM
TK-10 renal
  TGI: > 100 µM
U251 CNS
  TGI: > 100 µM
UACC-257 melanoma
  TGI: > 100 µM
UACC-62 melanoma
  TGI: > 100 µM
UO-31 renal
  TGI: > 100 µM

## c1ccc2c(c1)nc1n2CCSC1
786-0 renal
  TGI: > 100 µM
A498 renal
  TGI: > 100 µM
A549 NSCLC
  TGI: > 100 µM
ACHN renal
  TGI: > 100 µM
BT-549 breast
  TGI: > 100 µM
CAKI-1 renal
  TGI: > 100 µM
CCRF-CEM leukemia
  TGI: > 100 µM
COLO 205 colon
  TGI: > 100 µM
DU-145 prostate
  TGI: > 100 µM
EKVX NSCLC
  TGI: > 100 µM
HCC-2998 colon
  TGI: > 100 µM
HCT-116 colon
  TGI: > 100 µM
HCT-15 colon
  TGI: > 100 µM
HL-60(TB) leukemia
  TGI: > 100 µM
HOP-62 NSCLC
  TGI: > 100 µM
HOP-92 NSCLC
  TGI: > 100 µM
HS 578T breast
  TGI: > 100 µM
HT29 colon
  TGI: > 100 µM
IGROV1 ovarian
  TGI: > 100 µM
K-562 leukemia
  TGI: > 100 µM
KM12 colon
  TGI: > 100 µM
LOX IMVI melanoma
  TGI: > 100 µM
M14 melanoma
  TGI: > 100 µM
MCF7 breast
  TGI: > 100 µM
MDA-MB-231 breast
  TGI: > 100 µM
MDA-MB-435
  TGI: > 100 µM
MDA-N
  TGI: > 100 µM
MOLT-4 leukemia
  TGI: > 100 µM
NCI-H23 lung
  TGI: > 100 µM
NCI-H460 lung
  TGI: > 100 µM
NCI/ADR-RES ovarian
  TGI: > 100 µM
OVCAR-3 ovarian
  TGI: > 100 µM
OVCAR-4 ovarian
  TGI: > 100 µM
OVCAR-5 ovarian
  TGI: > 100 µM
PC-3 prostate
  TGI: > 100 µM
RPMI-8226 leukemia
  TGI: > 100 µM
RXF 393 renal
  TGI: > 100 µM
SF-268 CNS
  TGI: > 100 µM
SF-295 CNS
  TGI: > 100 µM
SF-539 CNS
  TGI: > 100 µM
SK-MEL-2 melanoma
  TGI: > 100 µM
SK-MEL-28 melanoma
  TGI: > 100 µM
SK-MEL-5 melanoma
  TGI: > 100 µM
SK-OV-3 ovarian
  TGI: > 100 µM
SN12C renal
  TGI: > 100 µM
SNB-19 CNS
  TGI: > 100 µM
SNB-75 CNS
  TGI: > 100 µM
SR leukemia
  TGI: > 100 µM
SW-620 colon
  TGI: > 100 µM
T-47D breast
  TGI: > 100 µM
TK-10 renal
  TGI: > 100 µM
U251 CNS
  TGI: > 100 µM
UACC-257 melanoma
  TGI: > 100 µM
UACC-62 melanoma
  TGI: > 100 µM
UO-31 renal
  TGI: > 100 µM
